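1) Cells in 96-well plates. 2) Compound, 48 h, 5 concentrations. 3) Linear interpolation between surrounding doses. 4) Unreached endpoint = highest concentration. GI50 is the concentration that inhibits growth by half.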 Active and inactive are the calls of the source. No stated cut-off is given here; in the data, active = GI50 up to about 1.1 µM and inactive = higher.
Legend:
Test in all cases: DTP human tumour cell line panel, 48 h
DMS-114 = test system: DMS-114
KM-20L2 = test system: KM-20L2
LXFL 529 = test system: LXFL 529
M19-MEL = test system: M19-MEL
DLD-1 = test system: DLD-1
DMS-273 = test system: DMS-273
RXF 631 = test system: RXF 631
XF498 = test system: XF498
HOP-18 = test system: HOP-18

| Compound | GI50 (DMS-114) | GI50 (KM-20L2) | GI50 (LXFL 529) | GI50 (M19-MEL) | GI50 (DLD-1) | GI50 (DMS-273) | GI50 (RXF 631) | GI50 (XF498) | GI50 (HOP-18) |
| --- | --- | --- | --- | --- | --- | --- | --- | --- | --- |
| CS(=O)(=O)OCCN(CCOS(C)(=O)=O)c1ccc(/C=N/c2ccc3oc(=O)ccc3c2)cc1 | 0.714 µM (active) | 2.64 µM (inactive) | 13.1 µM (inactive) | 13.2 µM (inactive) |  |  |  |  |  |
| N#CC(C#N)=C(C(C#N)C#N)C(C#N)C#N | > 100 µM (inactive) | > 100 µM (inactive) | > 100 µM (inactive) | > 100 µM (inactive) | > 100 µM (inactive) | > 100 µM (inactive) | > 100 µM (inactive) | > 100 µM (inactive) |  |
| Cc1nc2cc(Nc3ccccc3C(=O)O)ccc2s1 | > 100 µM (inactive) | > 100 µM (inactive) | > 100 µM (inactive) | > 100 µM (inactive) | > 100 µM (inactive) | > 100 µM (inactive) |  |  | 88.9 µM (inactive) |
| CCOC(=O)C[C@@]12CCCN[C@]1(C)CCc1ccccc12 |  | > 100 µM (inactive) | > 100 µM (inactive) | > 100 µM (inactive) | > 100 µM (inactive) |  |  | > 100 µM (inactive) | > 100 µM (inactive) |
| CC(=O)CC(=O)Nc1ccccc1C(F)(F)F | > 100 µM (inactive) | > 100 µM (inactive) | > 100 µM (inactive) | > 100 µM (inactive) | > 100 µM (inactive) |  | > 100 µM (inactive) | > 100 µM (inactive) |  |
| Cc1ccccc1C(C#N)C(=O)C(=O)Nc1nc([N+](=O)[O-])cs1 (centres undefined) | > 100 µM (inactive) | > 100 µM (inactive) | > 100 µM (inactive) | > 100 µM (inactive) | > 100 µM (inactive) |  | > 100 µM (inactive) | > 100 µM (inactive) | > 100 µM (inactive) |
| FC(F)(F)c1ccccc1/C=N/C12CC3CC(CC(C3)C1)C2 | > 100 µM (inactive) | > 100 µM (inactive) |  | > 100 µM (inactive) |  | > 100 µM (inactive) |  | > 100 µM (inactive) |  |
| CS(=O)(=O)c1ccc(-c2cc(-c3ccc(S(C)(=O)=O)cc3)[n+](-c3cc(-c4ccc(S(C)(=O)=O)cc4)c([O-])c(-c4ccc(S(C)(=O)=O)cc4)c3)c(-c3ccc(S(C)(=O)=O)cc3)c2)cc1 | > 100 µM (inactive) | > 100 µM (inactive) | > 100 µM (inactive) | > 100 µM (inactive) | > 100 µM (inactive) | > 100 µM (inactive) | > 100 µM (inactive) |  | > 100 µM (inactive) |
| C#CCN(N=O)C(=O)ON1C(=O)CCC1=O | > 100 µM (inactive) | > 100 µM (inactive) | > 100 µM (inactive) | > 100 µM (inactive) | > 100 µM (inactive) | > 100 µM (inactive) |  |  | > 100 µM (inactive) |
| O=C(O)CCC(NC(=O)c1ccc(Nc2nc3ccccc3nc2-c2cccs2)cc1)C(=O)O (centres undefined) | > 100 µM (inactive) | > 100 µM (inactive) | > 100 µM (inactive) | > 100 µM (inactive) | > 100 µM (inactive) | > 100 µM (inactive) | > 100 µM (inactive) | > 100 µM (inactive) | > 100 µM (inactive) |
